Test results: patent US20260345621A1, “GABAA RECEPTOR MODULATORS AND USES THEREOF” (Engrail Therapeutics, Inc., priority 2022, published 2026)
Entries after “also recorded” stand apart in the source; their conditions may differ.

Key:
[1] = system: anxiety (elevated plus maze); assay: Elevated plus maze (EPM); settings: oral
[2] = system: EEG spectral bands; assay: Pharmaco-EEG spectral analysis in wirelessly implanted rats
[3] = system: sleep stages; assay: Sleep-stage analysis in wirelessly implanted rats; settings: Lorazepam 1 mg/kg IP
[4] = phase II trial terminated; long term dosing studies; cited from earlier work
[5] = Frontal-Parietal cortex, Quiet Wake

## chlordiazepoxide [reference compound]
[1]
  effect compared with reference anxiolytic chlordiazepoxide: equivalent

## O=C1Nc2ccc(Cl)cc2C(c2ccccc2Cl)=NC1O (centres unmarked) [Lorazepam, reference compound]
[2]; Frontal-Frontal cortex, Active and Quiet Wake
  EEG spectral power change: increased beta, low and high gamma
[2]; Frontal-Frontal cortex, NREM
  EEG spectral power change: decreased theta, alpha, and beta, but increased low gamma
[2]; Frontal-Frontal cortex, NREM, Compound 1 high dose PO, Lorazepam 1 mg/kg IP
  duration of EEG effects: 9 h
[2]; Frontal-Frontal cortex, REM
  EEG spectral power change: increased beta
[2]; Frontal-Parietal cortex, NREM
  duration of increase in low and high gamma: only lasting to two hours post dose
[2]; [5]
  EEG spectral power change: decreased theta, increased beta and low and high gamma
  duration of EEG effects: did not last past four hours post dose
[2]; Frontal-Parietal cortex, REM
  EEG spectral power change: increased theta, alpha, beta, and low gamma
[2]; summary, Quiet Wake
  EEG spectral power change: increased low & high gamma, decreased delta
[3]; Compound 1 1 mg/kg PO
  NREM onset: decreased the latency to NREM onset; also recorded: quicker time to Non-REM onset sleep than Compound 1
[3]; Compound 1 PO
  Active Wake: decreased Active Wake
  NREM: increased NREM

## CCn1ncnc1COc1nn2c(-c3ccccc3F)nnc2cc1C(C)(C)C [7-(1,1-dimethylethyl)-6-(2-ethyl-2H-1,2,4-triazol-3-ylmethoxy)-3-(2-fluorophenyl)-1,2,4-triazolo[4,3-b]pyridazine]
[4]
  toxicity: terminated due to toxicity in long term dosing studies
